In the supplement of paper PMC10307832:

Columns and labels:
Assay in all cases: relative viability (nuclei count vs DMSO), 5 days (fraction); higher = more cells survive
[1] = test system: HCC-15
In short: (§1)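 Lung cancer cell lines in 1536-well plates got either a single drug or a fixed anchor-drug dose together with five library-drug doses (not always all listed) in √10 steps, by pin tool, on the day after seeding. Nuclei were counted after 5 days, and relative viability is the treated-to-vehicle ratio of nuclei counts. Values are medians of duplicate plates.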

[2] = test system: NCI-H1355
In short: as §1

[3] = test system: NCI-H1755
In short: as §1

[4] = test system: NCI-H647
In short: as §1

[5] = test system: COR-L23
In short: as §1

[6] = test system: SK-MES-1
In short: as §1

[7] = test system: NCI-H1734
In short: as §1

[8] = test system: NCI-H1993
In short: as §1

[9] = test system: NCI-H2347
In short: as §1

[10] = test system: NCI-H838
In short: as §1

[11] = test system: UMC-11
In short: as §1

[12] = test system: NCI-H358
In short: as §1

[13] = test system: HARA
In short: as §1

[14] = test system: NCI-H2170
In short: as §1

[15] = test system: HOP-62
In short: as §1

[16] = test system: NCI-H2009
In short: as §1

[17] = test system: NCI-H1793
In short: as §1

[18] = test system: NCI-H1395
In short: as §1

[19] = test system: NCI-H2228
In short: as §1

[20] = test system: COR-L 105
In short: as §1

CCN(CC)CCCCNc1ncc2cc(-c3cc(OC)cc(OC)c3)c(NC(=O)NC(C)(C)C)nc2n1 + COc1cc2c(Oc3ccc(NC(=O)C4(C(=O)Nc5ccc(F)cc5)CC4)cc3F)ccnc2cc1OCCCN1CCOCC1 [Foretinib] (partner 0.25 µM)
relative viability ([1]; first compound 0.01 µM): 1.04
relative viability ([1]; first compound 0.03162 µM): 1.19
relative viability ([1]; first compound 0.1 µM): 1.03
relative viability ([1]; first compound 0.3162 µM): 1.1
relative viability ([1]; first compound 1 µM): 0.989
relative viability ([2]; first compound 0.01 µM): 1.01
relative viability ([2]; first compound 0.03162 µM): 0.967
relative viability ([2]; first compound 0.1 µM): 1.01
relative viability ([2]; first compound 0.3162 µM): 1.1
relative viability ([2]; first compound 1 µM): 0.991
relative viability ([3]; first compound 0.01 µM): 0.986
relative viability ([3]; first compound 0.03162 µM): 0.92
relative viability ([3]; first compound 0.1 µM): 0.969
relative viability ([3]; first compound 0.3162 µM): 0.936
relative viability ([3]; first compound 1 µM): 0.882
relative viability ([4]; first compound 0.01 µM): 1.15
relative viability ([4]; first compound 0.03162 µM): 1.39
relative viability ([4]; first compound 0.1 µM): 1.43
relative viability ([4]; first compound 0.3162 µM): 1.55
relative viability ([4]; first compound 1 µM): 1.08
relative viability ([5]; first compound 0.01 µM): 1.11
relative viability ([5]; first compound 0.03162 µM): 0.981
relative viability ([5]; first compound 0.1 µM): 1.14
relative viability ([5]; first compound 0.3162 µM): 1.04
relative viability ([5]; first compound 1 µM): 1.05
relative viability ([6]; first compound 0.01 µM): 0.973
relative viability ([6]; first compound 0.03162 µM): 1.17
relative viability ([6]; first compound 0.1 µM): 0.88
relative viability ([6]; first compound 0.3162 µM): 1.12
relative viability ([6]; first compound 1 µM): 0.889
relative viability ([7]; first compound 0.01 µM): 0.863
relative viability ([7]; first compound 0.03162 µM): 0.828
relative viability ([7]; first compound 0.1 µM): 0.83
relative viability ([7]; first compound 0.3162 µM): 0.943
relative viability ([7]; first compound 1 µM): 0.694
relative viability ([8]; first compound 0.01 µM): 0.751
relative viability ([8]; first compound 0.03162 µM): 0.791
relative viability ([8]; first compound 0.1 µM): 0.934
relative viability ([8]; first compound 0.3162 µM): 0.917
relative viability ([8]; first compound 1 µM): 0.714
relative viability ([9]; first compound 0.01 µM): 0.744
relative viability ([9]; first compound 0.03162 µM): 0.85
relative viability ([9]; first compound 0.1 µM): 1.4
relative viability ([9]; first compound 0.3162 µM): 1.12
relative viability ([9]; first compound 1 µM): 0.766
relative viability ([10]; first compound 0.01 µM): 1.01
relative viability ([10]; first compound 0.03162 µM): 0.958
relative viability ([10]; first compound 0.1 µM): 1.19
relative viability ([10]; first compound 0.3162 µM): 0.986
relative viability ([10]; first compound 1 µM): 0.789
relative viability ([11]; first compound 0.01 µM): 0.952
relative viability ([11]; first compound 0.03162 µM): 1.02
relative viability ([11]; first compound 0.1 µM): 1.14
relative viability ([11]; first compound 0.3162 µM): 1.19
relative viability ([11]; first compound 1 µM): 1.02
relative viability ([12]; first compound 0.01 µM): 0.71
relative viability ([12]; first compound 0.03162 µM): 0.638
relative viability ([12]; first compound 0.1 µM): 0.679
relative viability ([12]; first compound 0.3162 µM): 0.815
relative viability ([12]; first compound 1 µM): 0.625
relative viability ([13]; first compound 0.01 µM): 0.996
relative viability ([13]; first compound 0.03162 µM): 0.848
relative viability ([13]; first compound 0.1 µM): 0.998
relative viability ([13]; first compound 0.3162 µM): 0.985
relative viability ([13]; first compound 1 µM): 0.493
relative viability ([14]; first compound 0.01 µM): 0.929
relative viability ([14]; first compound 0.03162 µM): 1.05
relative viability ([14]; first compound 0.1 µM): 0.961
relative viability ([14]; first compound 0.3162 µM): 1.08
relative viability ([14]; first compound 1 µM): 0.999
relative viability ([15]; first compound 0.01 µM): 1.15
relative viability ([15]; first compound 0.03162 µM): 1.13
relative viability ([15]; first compound 0.1 µM): 1.24
relative viability ([15]; first compound 0.3162 µM): 1.16
relative viability ([15]; first compound 1 µM): 1.12
relative viability ([16]; first compound 0.01 µM): 1.33
relative viability ([16]; first compound 0.03162 µM): 1.25
relative viability ([16]; first compound 0.1 µM): 1.22
relative viability ([16]; first compound 0.3162 µM): 1.29
relative viability ([16]; first compound 1 µM): 1.18
relative viability ([17]; first compound 0.01 µM): 0.734
relative viability ([17]; first compound 0.03162 µM): 0.759
relative viability ([17]; first compound 0.1 µM): 0.716
relative viability ([17]; first compound 0.3162 µM): 0.676
relative viability ([17]; first compound 1 µM): 0.403
relative viability ([18]; first compound 0.01 µM): 0.999
relative viability ([18]; first compound 0.03162 µM): 1.02
relative viability ([18]; first compound 0.1 µM): 0.912
relative viability ([18]; first compound 0.3162 µM): 0.887
relative viability ([18]; first compound 1 µM): 0.818
relative viability ([19]; first compound 0.01 µM): 1.03
relative viability ([19]; first compound 0.03162 µM): 1.01
relative viability ([19]; first compound 0.1 µM): 1.35
relative viability ([19]; first compound 0.3162 µM): 0.998
relative viability ([19]; first compound 1 µM): 0.635
relative viability ([20]; first compound 0.01 µM): 1.27
relative viability ([20]; first compound 0.03162 µM): 0.994
relative viability ([20]; first compound 0.1 µM): 1.23
relative viability ([20]; first compound 0.3162 µM): 0.909
relative viability ([20]; first compound 1 µM): 1.15
